Eleven molecules from US7101878B1 (Agouron Pharmaceuticals, Inc., priority 1998, dated 2006) can be followed below.

In one data set the target is T1, hGnRH receptor (Homo sapiens, UniProt P30968).
T1 construct: expressed in transfected cells; host or cells: HEK 293 (hGnRH-R/293, from Dr. Stuart Sealfon)
T1 sequence (P30968 1-328): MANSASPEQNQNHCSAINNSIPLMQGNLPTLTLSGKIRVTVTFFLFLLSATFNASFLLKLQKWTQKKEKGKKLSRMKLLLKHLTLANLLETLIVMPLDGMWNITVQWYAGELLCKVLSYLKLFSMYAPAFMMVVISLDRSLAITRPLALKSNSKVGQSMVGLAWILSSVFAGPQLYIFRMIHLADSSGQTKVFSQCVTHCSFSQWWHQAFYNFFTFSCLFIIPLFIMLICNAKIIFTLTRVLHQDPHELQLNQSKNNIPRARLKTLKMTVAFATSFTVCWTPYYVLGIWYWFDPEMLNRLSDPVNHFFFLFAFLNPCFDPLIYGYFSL
The data set is described as follows: Total inositol phosphates measurement, 293 cells containing the hGnRH receptor. Format: cell-based. Conditions: for GnRH functional: no species or readout annotated. Here is the method:
To assess the activity of the compounds as agonists or antagonists, an assay measuring accumulation of total inositol phosphates was employed. 293 cells containing the hGnRH receptor were plated onto 24-well plates (approximately 200,000 cells/well) using DMEM media. […] The medium was aspirated and the cells rinsed with serum-free DMEM. The medium was aspirated and the cells were then treated with test compounds or vehicle for 30 minutes at 37° C. […] The media was replaced with ice-cold 10 mM formic acid, which stopped the reaction and also served to extract cellular lipids. Inositol phosphates were separated by ion-exchange chromatography on Dowex columns, which were washed with 2.5 mL of 10 mM myoinositol and 10 mM formic acid. The columns were then washed with 5 mL of 60 mM sodium formate and […], and total inositol phosphates were eluted with 5 mL 1M ammonium formate, 0.1 M formic acid. The column eluates were added to liquid scintillation vials containing 15 ml of scintillation cocktail and were counted by liquid scintillation counting.
This cell line was provided by Dr. Stuart Sealfon, Mount Sinai Medical School New York, N.Y. These cells were grown in DMEM supplemented with 0.2 g/L G418 100 U/ml penicillin/streptomycin and 10% FBS. Both GGH3 and hGnRH-R/293 cells were utilized for both for both total inositol phosphate measurement and for microphysiometry assessment of compound efficacy.

Data set [1] relates to LH levels in castrated rats. The data set is described as follows: Castrated male rat model, LH suppression. The data set is classed as in vivo. The text has this:
Experimental Protocol: Male Sprague-Dawley (225-250 g) rats were castrated and allowed 10 days postoperative recovery. Ten days post castration animals were instrumented with indwelling femoral venous and arterial catheters to facilitate remote infusions and blood sampling. On the day of the experiment, animals were allowed to acclimate to the procedure room while residing in their home cage. Basal blood samples were drawn from all animals. Following basal sampling, either vehicle (10% DMSO, 10% cremophor/saline), Antide (1.0 μg) or compound 11 (10 mg/kg) was administered intravenously. Blood samples were drawn 10, 60, 90, 120, 180, 240 minutes after injections. Blood was centrifuged, serum collected and stored in −70° freezer until assayed. Serum samples were analyzed using DSL-4600 ACTIVE LH coated-tube immunoradiometric assay kit from Diagnostic Systems Laboratories, Inc.
Surgical removal of the gonads removes circulating testosterone and eliminates the negative feedback of testosterone on the hypothalamus. […] This model seems suitable for evaluating small molecule GnRH antagonists.
Male Sprague-Dawley ([…]) rats were castrated via the scrotal approach under halothane anesthesia. Animals were allowed 14 days post operative recovery prior to study. Thirteen days following castration, animals were anesthetized with halothane and instrumented with indwelling jugular vein cannula. Details of the cannulation procedure have been described previously {Harms and Ojeda, 1974)}. On study day, animals were allowed to acclimate to the procedure room while residing in their home cage. Basal blood samples were drawn from all animals. Immediately following basal sampling, vehicle or test compounds were administered by various routes. The routes of administration employed were intravenous (iv), intramuscular (im), intraperitoneal (ip), subcutaneous (sc) and oral (po). Blood samples were drawn into heparin containing tubes at multiple time points post treatment. Blood was centrifuged immediately, plasma collected and stored in −20° freezer until assayed. Plasma samples were analyzed using DSL-4600 ACTIVE LH coated-tube immunoradiometric assay kit from Diagnostic Systems Laboratories, Inc.
Formulation #1 (denoted with superscript 1): 10% DMSO, 10% Cremophor EL and 80% physiological saline.
Formulation #2 (denoted with superscript 2): 10% Cremophor EL and 90% physiological saline.

A further data set has as its target 5-HT7 (Homo sapiens, UniProt P34969). The data set is described as follows: Selectivity: 5-HT7.
Another data set deals with 5-HT2a (Homo sapiens, UniProt P28223). The data set is described as follows: Selectivity: 5-HT2a.
Sequence of 5-HT2a (P28223 whole entry, species assumed): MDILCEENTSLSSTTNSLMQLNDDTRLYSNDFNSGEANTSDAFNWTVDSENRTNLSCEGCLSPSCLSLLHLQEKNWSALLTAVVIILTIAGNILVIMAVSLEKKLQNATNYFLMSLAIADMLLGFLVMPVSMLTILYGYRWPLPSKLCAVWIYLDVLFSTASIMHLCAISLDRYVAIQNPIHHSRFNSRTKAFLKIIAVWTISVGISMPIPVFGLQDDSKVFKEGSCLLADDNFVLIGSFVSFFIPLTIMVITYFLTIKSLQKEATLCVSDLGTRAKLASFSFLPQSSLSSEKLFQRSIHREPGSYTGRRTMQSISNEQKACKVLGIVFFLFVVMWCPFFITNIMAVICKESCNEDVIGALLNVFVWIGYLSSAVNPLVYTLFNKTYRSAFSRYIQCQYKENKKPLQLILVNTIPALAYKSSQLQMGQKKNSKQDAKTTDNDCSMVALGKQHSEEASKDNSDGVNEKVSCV
A further data set concerns the target T2, NPY Y1 (Homo sapiens, UniProt P25929).
T2 sequence (P25929 1-384): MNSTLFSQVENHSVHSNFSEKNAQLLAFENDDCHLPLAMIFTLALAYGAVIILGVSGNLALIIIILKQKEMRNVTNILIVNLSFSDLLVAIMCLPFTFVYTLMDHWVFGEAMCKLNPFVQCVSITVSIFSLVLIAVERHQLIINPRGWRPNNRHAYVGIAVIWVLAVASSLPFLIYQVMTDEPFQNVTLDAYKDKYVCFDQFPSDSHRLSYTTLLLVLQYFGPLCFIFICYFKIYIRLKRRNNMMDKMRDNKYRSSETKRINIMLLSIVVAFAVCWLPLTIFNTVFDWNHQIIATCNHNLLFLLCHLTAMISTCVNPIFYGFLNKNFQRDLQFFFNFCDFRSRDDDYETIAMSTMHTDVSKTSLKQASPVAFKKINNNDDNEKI
Put plainly: Selectivity: NPY Y1.

The next data set addresses Glucagon (Homo sapiens, UniProt P47871). Put plainly: Selectivity: Glucagon.
In a further data set the target is GLP-1 (Homo sapiens, UniProt P43220). The data set is described as follows: Selectivity: GLP-1.
Sequence of GLP-1 (P43220 24-463): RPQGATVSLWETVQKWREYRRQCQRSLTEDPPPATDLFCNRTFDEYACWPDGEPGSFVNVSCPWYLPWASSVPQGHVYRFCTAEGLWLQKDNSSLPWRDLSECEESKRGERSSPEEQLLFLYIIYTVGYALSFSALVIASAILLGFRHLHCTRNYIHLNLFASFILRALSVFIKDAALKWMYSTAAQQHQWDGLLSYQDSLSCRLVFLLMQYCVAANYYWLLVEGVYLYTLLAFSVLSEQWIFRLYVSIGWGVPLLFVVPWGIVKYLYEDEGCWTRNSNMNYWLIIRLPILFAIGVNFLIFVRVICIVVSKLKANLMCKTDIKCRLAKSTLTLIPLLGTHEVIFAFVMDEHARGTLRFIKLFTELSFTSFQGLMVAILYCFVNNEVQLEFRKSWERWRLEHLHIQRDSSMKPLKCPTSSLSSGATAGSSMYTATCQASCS
Another data set concerns the target D2 Dopamine (Homo sapiens, UniProt P14416). Put plainly: Selectivity: D2 Dopamine.
The nature of data set [2]: Metabolism rate, pmol/min/mg at 1 μM, human. Format: in vitro ADME. The settings on record: 1 μM compound.
A short description of data set [3]: Metabolism rate, pmol/min/mg at 1 μM, rat female. Format: in vitro ADME. Conditions: 1 μM compound.
The nature of data set [4]: Metabolism rate, pmol/min/mg at 1 μM, dog. Conditions: 1 μM compound. Format: in vitro ADME.
A short description of data set [5]: Metabolism rate, pmol/min/mg at 1 μM, monkey. Conditions: 1 μM compound. The data set is classed as in vitro ADME.

“Also recorded” adds a separate entry of the source. Where a SMILES comes first, the peptide text is derived from it. [ ]: non-standard residue; d: D form. The star is where a group is joined. dPhe(4-Cl) = N[C@H](Cc1ccc(Cl)cc1)C(=O)O; d2Nal = N[C@H](Cc1ccc2ccccc2c1)C(=O)O; Lys(iPr) = CC(C)NCCCC[C@H](N)C(=O)O; d3Pal = N[C@H](Cc1cccnc1)C(=O)O; Nicotinoyl = O=C(c1cccnc1)*

Sequence of Glucagon (P47871 26-477): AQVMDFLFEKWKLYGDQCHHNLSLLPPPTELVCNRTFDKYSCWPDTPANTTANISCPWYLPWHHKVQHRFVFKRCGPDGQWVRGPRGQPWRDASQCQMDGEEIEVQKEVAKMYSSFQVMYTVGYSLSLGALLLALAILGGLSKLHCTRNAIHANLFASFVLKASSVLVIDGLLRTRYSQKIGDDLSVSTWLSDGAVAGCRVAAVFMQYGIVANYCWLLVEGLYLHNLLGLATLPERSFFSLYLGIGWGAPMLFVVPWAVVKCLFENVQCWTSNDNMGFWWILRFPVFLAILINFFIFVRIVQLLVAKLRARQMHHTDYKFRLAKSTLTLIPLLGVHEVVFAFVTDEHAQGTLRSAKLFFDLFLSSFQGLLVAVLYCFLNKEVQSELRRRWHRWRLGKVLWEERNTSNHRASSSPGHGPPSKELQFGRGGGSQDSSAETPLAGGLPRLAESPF
Sequence of 5-HT7 (P34969 whole entry, species assumed): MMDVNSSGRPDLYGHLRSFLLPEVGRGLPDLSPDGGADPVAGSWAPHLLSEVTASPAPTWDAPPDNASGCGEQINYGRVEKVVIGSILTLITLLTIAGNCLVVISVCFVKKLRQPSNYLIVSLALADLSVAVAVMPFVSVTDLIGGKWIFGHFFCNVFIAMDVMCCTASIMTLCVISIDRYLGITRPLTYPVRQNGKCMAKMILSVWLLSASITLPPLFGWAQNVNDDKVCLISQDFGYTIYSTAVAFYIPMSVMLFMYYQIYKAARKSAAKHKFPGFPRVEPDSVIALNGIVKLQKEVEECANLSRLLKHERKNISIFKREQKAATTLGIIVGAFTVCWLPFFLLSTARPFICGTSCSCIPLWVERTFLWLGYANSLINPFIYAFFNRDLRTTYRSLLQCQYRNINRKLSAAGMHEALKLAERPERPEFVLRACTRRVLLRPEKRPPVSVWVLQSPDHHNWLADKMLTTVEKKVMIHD
Sequence of D2 Dopamine (P14416 whole entry): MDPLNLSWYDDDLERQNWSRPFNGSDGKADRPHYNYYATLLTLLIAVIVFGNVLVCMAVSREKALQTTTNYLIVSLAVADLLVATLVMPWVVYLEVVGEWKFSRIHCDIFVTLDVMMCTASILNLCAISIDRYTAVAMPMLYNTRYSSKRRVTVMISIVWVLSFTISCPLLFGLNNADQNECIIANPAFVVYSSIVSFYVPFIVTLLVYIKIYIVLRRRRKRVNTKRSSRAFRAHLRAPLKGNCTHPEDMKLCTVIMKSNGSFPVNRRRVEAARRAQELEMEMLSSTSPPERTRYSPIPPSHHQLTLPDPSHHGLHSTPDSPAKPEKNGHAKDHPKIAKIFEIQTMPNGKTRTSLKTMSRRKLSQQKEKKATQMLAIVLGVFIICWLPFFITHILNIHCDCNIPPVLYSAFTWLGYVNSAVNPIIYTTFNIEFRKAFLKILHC

With `CC(=O)N[C@H](Cc1ccc2ccccc2c1)C(=O)N[C@H](Cc1ccc(Cl)cc1)C(=O)N[C@H](Cc1cccnc1)C(=O)N[C@@H](CO)C(=O)N[C@@H](CCCCNC(=O)c1cccnc1)C(=O)N[C@H](CCCCNC(=O)c1cccnc1)C(=O)N[C@@H](CC(C)C)C(=O)N[C@@H](CCCCNC(C)C)C(=O)N1CCC[C@H]1C(=O)N[C@H](C)C(N)=O` [Antide, reference compound] (Ac-[d2Nal][dPhe(4-Cl)][d3Pal]SK(Nicotinoyl)[dK](Nicotinoyl)L[Lys(iPr)]P[dA]-NH2), the “stimulation of total [3H]inositol phosphates by compound alone” value at hGnRH receptor (compound alone, no GnRH) is on record as “Neither compound alone stimulated an increase”. In addition, the “inhibition of GnRH-stimulated total inositol phosphate accumulation” value against hGnRH receptor (half-maximal concentration of GnRH (1 nM)) is given as “able to inhibit the stimulation”. Further, in data set [1] (Antide 2.0 and 20 ug, sc), the “LH in CX rats” value is recorded as “reduces LH levels; also recorded: suppresses LH”. Further, the “LH in castrated rat model” value in [1] (intravenous, Antide 1.0 μg, compound 11 10 mg/kg) was “reduces LH”.

On hGnRH receptor, `Cc1cc2c(cc1Cc1ccc(C(=O)NC[C@H]3CC[C@H](CNC(=N)N)CC3)o1)C(C)(C)CCC2(C)C` [Compound 10] showed a Kb of 0.095 µM. For the same molecule, the figures for the Ki at 5-HT7 and on 5-HT2a were 1.27 µM and 1.2 µM, respectively. Also, the IC50 is 9.7 µM against NPY Y1 and 6.6 µM on Glucagon.

For `Cc1cc2c(cc1Cc1ccc(C(=O)NCC3CCCC(CNc4nccc(NCC5CCCO5)n4)C3)o1)C(C)(C)CCC2(C)C` (centres unmarked) [Compound 11], the Ki on 5-HT7 worked out at 1.8 µM; on D2 Dopamine it was 0.15 µM. For the same molecule, the IC50 against GLP-1 is greater than 10 µM; at NPY Y1, 2.55 µM; on Glucagon, 3.2 µM.

In turn, `Cc1cc2c(cc1Cc1ccc(C(=O)NC[C@H]3CC[C@H](C(=O)O)CC3)o1)C(C)(C)CCC2(C)C` [Compound 12] came in with a Kb at hGnRH receptor of 0.17 µM. Also, the Ki on 5-HT7 is greater than 4.5 µM; on 5-HT2a, greater than 4 µM; on D2 Dopamine, 1.4 µM. Moreover, the half-inhibitory concentration (IC50) against NPY Y1 is greater than 10 µM; on Glucagon, 10 µM.

`Cc1cnc(CNC(=O)c2ccc(Cc3cc4c(cc3C)C(C)(C)CCC4(C)C)o2)cn1` [Compound 13] registered a Kb on hGnRH receptor of 0.085 µM. For the same molecule, the Ki is greater than 4.4 µM at 5-HT7 and greater than 3.2 µM on D2 Dopamine. Further, the IC50 at GLP-1 was greater than 10 µM; at NPY Y1, greater than 10 µM; against Glucagon it was 7.9 µM.

Turning to `COc1cccc(OC)c1NC(=O)c1ccc(Cc2cc3c(cc2C)C(C)(C)CCC3(C)C)o1` [Compound 20], the Ki on 5-HT7 is greater than 4.4 µM; at GLP-1 it was greater than 10 µM; on 5-HT2a, 2.35 µM; on NPY Y1 it was greater than 10 µM; at Glucagon, 6.7 µM; at D2 Dopamine it was greater than 3.2 µM. Also, the IC50 at GLP-1 was greater than 10 µM; at NPY Y1, greater than 10 µM; at Glucagon, 6.7 µM.

With `Cc1cc2c(cc1Cc1ccc(C(=O)NCc3nc4ccccc4[nH]3)o1)C(C)(C)CCC2(C)C` [Compound 48], the GnRH functional result on hGnRH receptor was “Antag- onist”. The “% Max LH Suppression” value in [1] (10 mg/kg iv) is 75%; in [1] (20 mg/kg iv), 51%. For the same molecule, the “time of % Max LH Suppression” value stood at 0.5 h in data set [1] (10 mg/kg iv) and 1 h in data set [1] (20 mg/kg iv). Moreover, the “≧50% Suppression Duration” value in [1] (10 mg/kg iv) is less than 1 h; in [1] (20 mg/kg iv) it was 1 h. Besides, in [2], the “Human pmol/min/mg 1 μM” value turned out to be 289 pmol/min/mg. In addition, the “Rat female pmol/min/mg 1 μM” value in data set [3] is 135 pmol/min/mg. Further, the Ki was greater than 4.4 µM on 5-HT7 and greater than 3.2 µM at D2 Dopamine. Also, the IC50 against GLP-1 was greater than 10 µM; against NPY Y1, greater than 10 µM; on Glucagon, 6.3 µM.

Consider `Cc1cc2c(cc1Cc1ccc(C(=O)NCc3cccc(CNc4nccc(NCC5CCCO5)n4)c3)o1)C(C)(C)CCC2(C)C` (centres unmarked) [Compound 70], for which the “Human pmol/min/mg 1 μM” value in data set [2] is 311 pmol/min/mg.

On to `COc1cc(OC)c(NC(=O)c2ccc(Cc3cc4c(cc3C)C(C)(C)CCC4(C)C)o2)c(OC)c1C#N` [Compound 177], for which the GnRH functional result at hGnRH receptor is on record as “Antag- onist”. Besides, the “Human pmol/min/mg 1 μM” value in data set [2] came to 876 pmol/min/mg. Besides, the “Dog pmol/min/mg 1 μM” value in data set [4] is 2456 pmol/min/mg. Moreover, in [5], the “Monkey pmol/min/mg 1 μM” value turned out to be 3120 pmol/min/mg.

Regarding `COc1cc(OC)c(NC(=O)c2ccc(Cc3cc4c(cc3C)CCCC4(C)C)o2)c(OC)c1` [Compound 183], the GnRH functional result on hGnRH receptor is given as “Antag- onist”. In data set [1] (10 mg/kg im), the “% Max LH Suppression” value is 58% and the “time of % Max LH Suppression” value was determined as 2 h. In addition, in data set [1] (10 mg/kg iv), the “% Max LH Suppression” value is 92%, the “time of % Max LH Suppression” value stood at 1 h and the “≧50% Suppression Duration” value stood at 8 h. In [1] (50 mg/kg po), the “% Max LH Suppression” value was 60%, the “time of % Max LH Suppression” value amounted to 2 h and the “≧50% Suppression Duration” value stood at 8 h. In [2], the “Human pmol/min/mg 1 μM” value is given as 238 pmol/min/mg. Moreover, the “Rat female pmol/min/mg 1 μM” value in data set [3] amounted to 64 pmol/min/mg.

Regarding `COc1cc(OC)c(NC(=O)c2ccc(Cc3cc(C(C)(C)C)ccc3C)o2)c(OC)c1` [Compound 200], the GnRH functional result on hGnRH receptor was “Antag- onist”. Besides, the “Human pmol/min/mg 1 μM” value in data set [2] is given as 346 pmol/min/mg. In data set [3], the “Rat female pmol/min/mg 1 μM” value is 86 pmol/min/mg.
